Results taken from patent publication EP2321300B1, “CHLOROPHYLL CATABOLITES” (Universität Innsbruck, priority 2008, dated 2010).

Tested on: Autoxidation von Linolensäure
Assay: Antioxidant test: inhibition of hydroperoxide formation in radical-chain autoxidation of linoleic acid (after Stocker et al.), AIBN as radical starter, UV/Vis at 234 nm or HPLC
Assay type: biochemical
Conditions: for IC50: Autoxidation of Linolensäure in the presence of air, b23 room temperature (37°C, 0,15 M Linolsäure, 2 mM AIBN, 6 % (v/v) Methanol), read-out: Konzentration c0,5 (Rate der Peroxidbildung auf die Hälfte reduziert)
Excerpt: Stocker et al. verwendeten zur Quantifizierung der antioxidativen Wirkung des Hämabbauproduktes Bilirubin ein einfaches Testsystem. Die essentielle Fettsäure Linolsäure, eine zweifach ungesättigte Fettsäure, ist sehr empfindlich gegenüber einer Oxidation durch freie Radikale. Derartige Oxidationen können in Form von Kettenreaktionen z.B. in Zellmembranen großflächige Schäden herbeiführen. In vitro wurde dieser "oxidative Stress" durch den Einsatz einer Azoverbindung (Radikalstarter) simuliert. Derartige Azoverbindungen bilden ständig, abhängig von der Temperatur durch Abspaltung von Stickstoff (N2) Kohlenstoffradikale, die wiederum mit den ungesättigten Bindungen der Fettsäuren reagieren können. Es bilden sich Fettsäureradikale die ihrerseits wiederum mit Sauerstoff reagieren. Das führt zur Bildung von Fettsäurehydroperoxiden, die wegen ihrer besonderen Absorptionseigenschaften in UV-Bereich (234 nm) spektroskopisch nachweisbar sind. Abhängig von der Konzentration des Radikalbildners steigt also mit der Zeit die Anzahl der Fettsäurehydroperoxidmoleküle an. Setzt man einen antioxidativ wirksamen Stoff zu, können Radikale abgefangen werden, und die Bildung der Hydroperoxide wird verlangsamt.
Das Ergebnis dieser Untersuchungen zeigt die Figur 8, in der die zeitliche Abhängigkeit der Zunahme oxidierter Linolsäure bei unterschiedlichen Konzentrationen der Antioxidantien Bilirubin bzw. NCC-1 aufgetragen ist.
Die Aktivität des natürlichen und weniger polaren Cj-YCC-2 als Antioxidans wurde in Lösung mittels Standardexperimenten, die unter anderem auch in der WO 2007/030848 beschrieben sind, getestet unter Verwendung der Autoxidation von Linolensäure in der Anwesenheit von Luft und bei Raumtemperatur. Das gelbe Tetrapyrrol Cj-YCC-2 inhibierte die Erscheinung von Hydroperoxiden aus einer Radikal-Ketten-Autoxidation von Linolensäure in der Anwesenheit von Luft (siehe Fig. 8). […]

| SMILES | IC50 | Erscheinung von Hydroperoxiden aus einer Radikal-Ketten-Autoxidation von Linolensäure (in the presence of air, Fig. 8) |
| --- | --- | --- |
| C=CC1=C(C)C(Cc2[nH]c(C3c4[nH]c(Cc5[nH]c(C=O)c(C)c5CCO)c(C)c4C(=O)C3C(=O)OC)c(CCC(=O)O)c2C)NC1=O (stereo not drawn) [Cj-NCC-1, reference compound] | ~100 µM | – |
| C=CC1=C(C)/C(=C\c2[nH]c([C@@H]3c4[nH]c(Cc5[nH]c(C=O)c(C)c5CCO)c(C)c4C(=O)[C@H]3C(=O)OC)c(CCC(=O)O)c2C)NC1=O [Cj-YCC-1, (13^2S,15R,20E) - 3',3^2-Didehydro - 4,5,10,15 - (22,24H) - hexahydro - 13^2 - methoxycarbonyl - 4,5 - seco - 4,5 - dioxo - phytoporphyrinat] | ~10 µM | – |
| C=CC1=C(C)/C(=C/c2[nH]c([C@@H]3c4[nH]c(Cc5[nH]c(C=O)c(C)c5CCO)c(C)c4C(=O)[C@H]3C(=O)OC)c(CCC(=O)O)c2C)NC1=O [Cj-YCC-2, (13^2S,15R,20Z) - 3^1,3^2-Didehydro - 4,5,10,15 - (22,24H) - hexahydro - 13^2 - methoxycarbonyl - 4,5 - seco - 4,5 - dioxo - phytoporphyrinat] | – | inhibierte |
